Measured values reported in patent US20210253562A1, “ACYLSUFONAMIDE COMPOUNDS USEFUL AS EP3 RECEPTOR ANTAGONISTS” (Janssen Pharmaceutica NV, priority 2018, published 2021).
Like-named read-outs stand apart in the source and are kept apart here.

Tests used:
[1] = biological target: T1, CHO cells over-expressing the EP3 receptor (Homo sapiens, UniProt P43115); test: CHO cell cAMP assay; EP3 cAMP antagonist dose response (sulprostone reference), HTRF; format: cell-based; conditions: sulprostone 700 nM (EC80) and FSK 2 μM (EC70); read-out: CHO_cAMP IC50
T1 construct: expressed in transfected cells; host or cells: CHO cells
T1 sequence (P43115 1-390): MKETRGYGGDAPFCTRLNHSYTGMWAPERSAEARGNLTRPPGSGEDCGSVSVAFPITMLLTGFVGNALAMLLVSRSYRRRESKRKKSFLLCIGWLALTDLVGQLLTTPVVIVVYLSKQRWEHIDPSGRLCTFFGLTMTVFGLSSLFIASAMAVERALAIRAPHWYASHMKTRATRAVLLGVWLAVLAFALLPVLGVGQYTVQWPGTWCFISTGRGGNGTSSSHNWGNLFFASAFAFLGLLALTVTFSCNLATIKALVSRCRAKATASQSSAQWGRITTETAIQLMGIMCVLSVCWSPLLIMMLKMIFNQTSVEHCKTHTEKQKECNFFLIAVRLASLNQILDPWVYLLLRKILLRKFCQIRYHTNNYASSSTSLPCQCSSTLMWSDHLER
Description: Biological Example 2: CHO Cell cAMP Assay
This assay monitored the cAMP generation in CHO cells over-expressing the EP3 receptor in the presence or absence of antagonist stimulated with Forskolin (FSK, CAS No. 66428-89-5) and a known EP3 Agonist (sulprostone, CAS No. 60325-46-4). For detection, a homogeneous competitive immunoassay (Time Resolved Fluorescence Energy Transfer (hTR-FRET)) was used.
Cells (6K cells per well) were plated in Poly-D-Lysine coated plates the day before the assay was to be run and were incubated at 37° C. One hour before the assay the media was removed and replaced with assay buffer (500 mL HBSS (+Ca)+2.5 mL 1M HEPES+6.66 mL 7.5% BSA) (starved at 37° C.). At the start of the assay the buffer was removed from the cells and replaced with buffer containing test compound(s). Sulprostone at an EC80 dose (700 nM) and FSK at an EC70 dose (2 μM) were added to initiate the reaction (37° C. for 30 minutes).
FSK increases cAMP production and sulprostone decreases cAMP production produced by FSK. In this assay, EP3 antagonists will increase the cAMP to the level of cAMP generated by FSK alone.
The reaction was terminated with the addition of cAMP detection reagents (labeled cAMP and labeled cAMP antibody in lysis buffer (HTRF reagent, which utilizes a cryptate-labeled anti-cAMP and d2-labeled cAMP-d2 is an HTRF acceptor fluorophore)). Approximately one hour later the plates were read on an Envision (Perkin Elmer) in HTRF mode. Well results were calculated based on a ratio of counts at 665 nm and 615 nm (data output was a calculation of the ratio: (read @665 nm/read @ 615 nm)*1000. For test compounds dosed serially, well results were converted to nM cAMP using a cAMP standard run on each plate. nM cAMP from a set of wells dosed with test compound(s) were plotted. nM cAMP was calculated for each well from a standard curve located on each plate (P1-12 and P13-24) by first calculating the slope and deriving the intercept(b):
[formula] NScAMP_s tan dard_cruve=m(nM cAMP_s tan dard_curve)+b
NSP, NSN, NSsample were converted to nM cAMP using the following equation: […]
IC50 values were determined from a […] (Hill equation) of a single 11-point compound dosing. A best-fit curve was determined by the minimum sum of squares method plotting cAMP produced vs compound concentration.

[2] = biological target: T2, EP3 membrane (EP3 receptor) (Homo sapiens, UniProt P43115); test: [3H]-PGE2 binding; EP3 competition binding (SPA)
T2 construct: purchased Millipore HTS092M
T2 sequence (P43115 1-390): T1 sequence (P43115 1-390)
Outline: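 SPA competition at room temperature, 2 h: EP3 membranes 2 μg/well, 2 nM [3H]-PGE2, 0.1% DMSO, in Tris/MgCl2/EDTA buffer pH 7.4. Compounds in 1:3 serial dilution; scintillation read; Ki by one-site nonlinear fit.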

IC50 [1] | Ki ([2]; unit nM) | Ki [2] | Compound
11 nM | 0.5 nM |  | O=C(NC/C=C1\CCCc2cnn(Cc3ccc(Cl)cc3Cl)c21)NS(=O)(=O)c1cc(Cl)c(Cl)s1 [Compound #7, (E)-4,5-dichloro-N-((2-(1-(2,4-dichlorobenzyl)-1,4,5,6-tetrahydro-7H-indazol-7-ylidene)ethyl)carbamoyl)thiophene-2-sulfonamide]
2 nM | 0.1 nM |  | O=C(CC/C=C1\CCCc2cnn(Cc3ccc(Cl)cc3Cl)c21)NS(=O)(=O)c1cc(Cl)c(Cl)s1 [Compound #8, (E)-4-(1-(2,4-dichlorobenzyl)-1,4,5,6-tetrahydro-7H-indazol-7-ylidene)-N-((4,5-dichlorothiophen-2-yl)sulfonyl)butanamide]
14 nM |  | 6 nM | O=C(NC/C=C1\CCCc2cnn(Cc3ccc(Cl)cc3Cl)c21)NS(=O)(=O)c1cc(F)cc(F)c1 [Compound #9, (E)-N-((2-(1-(2,4-dichlorobenzyl)-1,4,5,6-tetrahydro-7H-indazol-7-ylidene)ethyl)carbamoyl)-3,5-difluorobenzenesulfonamide]
28 nM |  | 15 nM | O=C(NC/C=C1\CCCc2cnn(Cc3ccc(Cl)cc3Cl)c21)NS(=O)(=O)c1cccs1 [Compound #10, (E)-N-((2-(1-(2,4-dichlorobenzyl)-1,4,5,6-tetrahydro-7H-indazol-7-ylidene)ethyl)carbamoyl)thiophene-2-sulfonamide]
2 nM |  | 1 nM | O=C(NC/C=C1\CCCc2cnn(Cc3ccc(Cl)cc3Cl)c21)NS(=O)(=O)c1ccc(Cl)s1 [Compound #11, (E)-5-chloro-N-((2-(1-(2,4-dichlorobenzyl)-1,4,5,6-tetrahydro-7H-indazol-7-ylidene)ethyl)carbamoyl)thiophene-2-sulfonamide]
48 nM |  | 19 nM | O=C(NC/C=C1\CCCc2cnn(Cc3ccc(Cl)cc3Cl)c21)NS(=O)(=O)c1cnc2ccccc2c1 [Compound #12, (E)-N-((2-(1-(2,4-dichlorobenzyl)-1,4,5,6-tetrahydro-7H-indazol-7-ylidene)ethyl)carbamoyl)quinoline-3-sulfonamide]
29 nM |  | 10 nM | COc1ccc(S(=O)(=O)NC(=O)NC/C=C2\CCCc3cnn(Cc4ccc(Cl)cc4Cl)c32)cc1 [Compound #13, (E)-N-((2-(1-(2,4-dichlorobenzyl)-1,4,5,6-tetrahydro-7H-indazol-7-ylidene)ethyl)carbamoyl)-4-methoxybenzenesulfonamide]
3700 nM |  | 2000 nM | CC(C)S(=O)(=O)NC(=O)C/C=C1\CCCc2cnn(Cc3ccc(Cl)cc3Cl)c21 [Compound #14, (E)-3-(1-(2,4-dichlorobenzyl)-1,4,5,6-tetrahydro-7H-indazol-7-ylidene)-N-(isopropylsulfonyl)propenamide]
5 nM |  | 1 nM | O=C(NC/C=C1\CCCc2cnn(Cc3ccc(Cl)cc3Cl)c21)NS(=O)(=O)c1nc2ccccc2s1 [Compound #15, (E)-N-((2-(1-(2,4-dichlorobenzyl)-1,4,5,6-tetrahydro-7H-indazol-7-ylidene)ethyl)carbamoyl)benzo[d]thiazole-2-sulfonamide]
27 nM |  | 9 nM | O=C(NC/C=C1\CCCc2cnn(Cc3ccc(Cl)cc3Cl)c21)NS(=O)(=O)c1ccc2c(c1)OCCO2 [Compound #16, (E)-N-((2-(1-(2,4-dichlorobenzyl)-1,4,5,6-tetrahydro-7H-indazol-7-ylidene)ethyl)carbamoyl)-2,3-dihydrobenzo[b][1,4]dioxine-6-sulfonamide]
74 nM |  | 19 nM | O=C(C/C=C1\CCCc2cnn(Cc3ccc(Cl)cc3Cl)c21)NS(=O)(=O)c1ccc(Cl)s1 [Compound #17]
662 nM |  | 147 nM | O=C(C/C=C1\CCCc2cnn(Cc3ccc(Cl)cc3Cl)c21)NS(=O)(=O)c1ccc2c(c1)OCCO2 [Compound #18, (E)-3-(1-(2,4-dichlorobenzyl)-1,4,5,6-tetrahydro-7H-indazol-7-ylidene)-N-((2,3-dihydrobenzo[b][1,4]dioxin-6-yl)sulfonyl)propenamide]
83 nM |  | 14 nM | O=C(C/C=C1\CCCc2cnn(Cc3ccc(Cl)cc3Cl)c21)NS(=O)(=O)c1cc(F)cc(F)c1 [Compound #19, (E)-3-(1-(2,4-dichlorobenzyl)-1,4,5,6-tetrahydro-7H-indazol-7-ylidene)-N-((3,5-difluorophenyl)sulfonyl)propenamide]
1000 nM |  | 280 nM | O=C(C/C=C1\CCCc2cnn(Cc3ccc(Cl)cc3Cl)c21)NS(=O)(=O)c1cccs1 [Compound #20, (E)-3-(1-(2,4-dichlorobenzyl)-1,4,5,6-tetrahydro-7H-indazol-7-ylidene)-N-(thiophen-2-ylsulfonyl)propenamide]
330 nM |  | 58 nM | O=C(C/C=C1\CCCc2cnn(Cc3ccc(Cl)cc3Cl)c21)NS(=O)(=O)c1nc2ccccc2s1 [Compound #21]
2900 nM |  | 373 nM | O=C(C/C=C1\CCCc2cnn(Cc3ccc(Cl)cc3Cl)c21)NS(=O)(=O)c1cnc2ccccc2c1 [Compound #22, (E)-3-(1-(2,4-dichlorobenzyl)-1,4,5,6-tetrahydro-7H-indazol-7-ylidene)-N-(quinolin-3-ylsulfonyl)propenamide]
453 nM |  | 256 nM | COc1ccc(S(=O)(=O)NC(=O)C/C=C2\CCCc3cnn(Cc4ccc(Cl)cc4Cl)c32)cc1 [Compound #23, (E)-3-(1-(2,4-dichlorobenzyl)-1,4,5,6-tetrahydro-7H-indazol-7-ylidene)-N-((4-methoxyphenyl)sulfonyl)propenamide]
6 nM |  | 3 nM | O=C(CC/C=C1\CCCc2cnn(Cc3ccc(Cl)cc3Cl)c21)NS(=O)(=O)c1ccc(Cl)cc1 [Compound #24, (E)-N-((4-chlorophenyl)sulfonyl)-4-(1-(2,4-dichlorobenzyl)-1,4,5,6-tetrahydro-7H-indazol-7-ylidene)butanamide]
251 nM |  | 51 nM | O=C(C/C=C1\CCCc2cnn(Cc3ccc(Cl)cc3Cl)c21)NS(=O)(=O)c1cc2ccccc2s1 [Compound #25, (E)-N-(benzo[b]thiophen-2-ylsulfonyl)-3-(1-(2,4-dichlorobenzyl)-1,4,5,6-tetrahydro-7H-indazol-7-ylidene)propenamide]
699 nM |  | 85 nM | O=C(C/C=C1\CCCc2cnn(Cc3ccc(Cl)cc3Cl)c21)NS(=O)(=O)c1cc2ccccc2o1 [Compound #26, (E)-N-(benzofuran-2-ylsulfonyl)-3-(1-(2,4-dichlorobenzyl)-1,4,5,6-tetrahydro-7H-indazol-7-ylidene)propenamide]
13 nM |  | 5 nM | O=C(NC/C=C1\CCCc2cnn(Cc3ccc(Cl)cc3Cl)c21)NS(=O)(=O)c1cc2ccccc2s1 [Compound #27, (E)-N-((2-(1-(2,4-dichlorobenzyl)-1,4,5,6-tetrahydro-7H-indazol-7-ylidene)ethyl)carbamoyl)benzo[b]thiophene-2-sulfonamide]
27 nM |  | 6 nM | O=C(NC/C=C1\CCCc2cnn(Cc3ccc(Cl)cc3Cl)c21)NS(=O)(=O)c1cc2ccccc2o1 [Compound #28, (E)-N-((2-(1-(2,4-dichlorobenzyl)-1,4,5,6-tetrahydro-7H-indazol-7-ylidene)ethyl)carbamoyl)benzofuran-2-sulfonamide]
